{"source": "PubChem BioAssay AID1259407", "about": "(Chemical Carcinogenesis Research Information System (CCRIS), 2018)", "test_system": "CCRIS mutagenicity, Ames/micronucleus/aberration tests", "assay": "CCRIS mutagenicity studies", "key": {"[1]": {"conditions": "Test System: AMES SALMONELLA TYPHIMURIUM, Strain/Indicator: TA98, Metabolic Activation: NONE, Method: STANDARD PLATE"}, "[2]": {"conditions": "Test System: AMES SALMONELLA TYPHIMURIUM, Strain/Indicator: TA98, Metabolic Activation: RAT, LIVER, S-9, AROCLOR 1254, Method: STANDARD PLATE"}, "[3]": {"conditions": "Test System: AMES SALMONELLA TYPHIMURIUM, Strain/Indicator: TA100, Metabolic Activation: RAT, LIVER, S-9, AROCLOR 1254, Method: STANDARD PLATE"}, "[4]": {"conditions": "Test System: AMES SALMONELLA TYPHIMURIUM, Strain/Indicator: TA1535, Metabolic Activation: NONE, Method: STANDARD PLATE"}, "[5]": {"conditions": "Test System: AMES SALMONELLA TYPHIMURIUM, Strain/Indicator: TA1535, Metabolic Activation: RAT, LIVER, S-9, AROCLOR 1254, Method: STANDARD PLATE"}, "[6]": {"conditions": "Test System: AMES SALMONELLA TYPHIMURIUM, Strain/Indicator: TA1537, Metabolic Activation: NONE, Method: STANDARD PLATE"}, "[7]": {"conditions": "Test System: AMES SALMONELLA TYPHIMURIUM, Strain/Indicator: TA1537, Metabolic Activation: RAT, LIVER, S-9, AROCLOR 1254, Method: STANDARD PLATE"}, "[8]": {"conditions": "Test System: AMES SALMONELLA TYPHIMURIUM, Strain/Indicator: TA100, Metabolic Activation: NONE, Method: STANDARD PLATE"}}, "note": "Activity calls are given as the source filed them. The rule behind the calls is not given here.", "data": [{"smiles": "C[C@H]1CCCC(=O)CCC/C=C/c2cc(O)cc(O)c2C(=O)O1", "values": [{"measurement": "mutagenic call", "setting": "End Point: IN VITRO CHROMOSOMAL ABERRATIONS, Test System: BOVINE LYMPHOCYTES, Metabolic Activation: NONE", "value": "active; positive (structural changes)"}, {"measurement": "mutagenic call", "setting": "End Point: In vitro chromosomal aberrations, Test System: Green monkey kidney (Vero) cells, Metabolic Activation: None", "value": "active; positive (structural changes)"}, {"measurement": "mutagenic call", "setting": "End Point: In vitro chromosomal aberrations, Test System: Monkey kidney Vero cells, Metabolic Activation: None", "value": "active; positive"}, {"measurement": "mutagenic call", "setting": "End Point: In vitro micronucleus, Test System: Green monkey kidney (Vero) cells, Metabolic Activation: None", "value": "active; positive"}, {"measurement": "mutagenic call", "setting": "End Point: In vivo chromosomal aberrations, Test System: Bone marrow cells, Species: Mouse, Strain/Sex: Balb/C/Female, Route: Oral", "value": "active; positive (structural changes) (effect diminished by administering clay)"}, {"measurement": "mutagenic call", "setting": "End Point: In vivo chromosomal aberrations, Test System: Bone marrow erythrocytes, Species: Mouse, Strain/Sex: Balb/C, Route: Intraperitoneal", "value": "active; positive (structural changes)"}, {"measurement": "mutagenic call", "setting": "End Point: In vivo micronucleus, Test System: Bone marrow cells, Species: Mouse, Strain/Sex: Balb/C/Female, Route: Oral", "value": "active; positive (effect diminished by administering clay)"}, {"measurement": "mutagenic call", "setting": "End Point: In vivo micronucleus, Test System: Bone marrow erythrocytes, Species: Mouse, Strain/Sex: Balb/C, Route: Intraperitoneal", "value": "active; positive (p<0.05)"}, {"measurement": "mutagenic call", "setting": "End Point: UDS Monkey kidney Vero cells, Strain/Indicator: Thymidine incorporation, Metabolic Activation: None, Method: Liquid scintillation counting", "value": "active; positive. prevented by vitamin e at 25 um."}, {"measurement": "mutagenic call", "setting": "Test System: AMES SALMONELLA TYPHIMURIUM, Strain/Indicator: TA98, Metabolic Activation: HAMSTER, LIVER, S-9, AROCLOR 1254, Method: STANDARD PLATE", "value": "inactive; negative"}, {"measurement": "mutagenic call", "setting": "[1]", "value": "inactive; negative"}, {"measurement": "mutagenic call", "setting": "Test System: AMES SALMONELLA TYPHIMURIUM, Strain/Indicator: TA98, Metabolic Activation: RAT, LIVER, MICROSOMES, PHENOBARBITAL, Method: STANDARD PLATE", "value": "inactive; negative"}, {"measurement": "mutagenic call", "setting": "[2]", "value": "inactive; negative"}, {"measurement": "mutagenic call", "setting": "Test System: AMES SALMONELLA TYPHIMURIUM, Strain/Indicator: TA98, Metabolic Activation: RAT, LIVER, S-9, Method: STANDARD PLATE", "value": "inactive; negative"}, {"measurement": "mutagenic call", "setting": "Test System: AMES SALMONELLA TYPHIMURIUM, Strain/Indicator: TA100, Metabolic Activation: HAMSTER, LIVER, S-9, AROCLOR 1254, Method: STANDARD PLATE", "value": "inactive; negative"}, {"measurement": "mutagenic call", "setting": "Test System: AMES SALMONELLA TYPHIMURIUM, Strain/Indicator: TA100, Metabolic Activation: NONE, Method: PREINCUBATION", "value": "inactive; negative"}, {"measurement": "mutagenic call", "setting": "Test System: AMES SALMONELLA TYPHIMURIUM, Strain/Indicator: TA100, Metabolic Activation: RAT, LIVER, MICROSOMES, PHENOBARBITAL, Method: STANDARD PLATE", "value": "inactive; negative"}, {"measurement": "mutagenic call", "setting": "[3]", "value": "inactive; negative"}, {"measurement": "mutagenic call", "setting": "Test System: AMES SALMONELLA TYPHIMURIUM, Strain/Indicator: TA100, Metabolic Activation: RAT, LIVER, S-9, PHENOBARBITAL, Method: PREINCUBATION", "value": "inactive; negative"}, {"measurement": "mutagenic call", "setting": "Test System: AMES SALMONELLA TYPHIMURIUM, Strain/Indicator: TA100, Metabolic Activation: RAT, LIVER, S-9, Method: STANDARD PLATE", "value": "inactive; negative; toxicity at 1000 ug/plate"}, {"measurement": "mutagenic call", "setting": "Test System: AMES SALMONELLA TYPHIMURIUM, Strain/Indicator: TA1535, Metabolic Activation: HAMSTER, LIVER, S-9, AROCLOR 1254, Method: STANDARD PLATE", "value": "inactive; negative"}, {"measurement": "mutagenic call", "setting": "[4]", "value": "inactive; negative"}, {"measurement": "mutagenic call", "setting": "[5]", "value": "inactive; negative"}, {"measurement": "mutagenic call", "setting": "Test System: AMES SALMONELLA TYPHIMURIUM, Strain/Indicator: TA1535, Metabolic Activation: RAT, LIVER, S-9, Method: STANDARD PLATE", "value": "inactive; negative"}, {"measurement": "mutagenic call", "setting": "Test System: AMES SALMONELLA TYPHIMURIUM, Strain/Indicator: TA1537, Metabolic Activation: HAMSTER, LIVER, S-9, AROCLOR 1254, Method: STANDARD PLATE", "value": "inactive; negative"}, {"measurement": "mutagenic call", "setting": "[6]", "value": "inactive; negative"}, {"measurement": "mutagenic call", "setting": "[7]", "value": "inactive; negative"}, {"measurement": "mutagenic call", "setting": "Test System: AMES SALMONELLA TYPHIMURIUM, Strain/Indicator: TA1537, Metabolic Activation: RAT, LIVER, S-9, Method: STANDARD PLATE", "value": "inactive; negative; toxicity at 500 and 1000 ug/plate"}, {"measurement": "mutagenic call", "setting": "Test System: AMES SALMONELLA TYPHIMURIUM, Strain/Indicator: TA1538, Metabolic Activation: HAMSTER, LIVER, S-9, AROCLOR 1254, Method: STANDARD PLATE", "value": "inactive; negative"}, {"measurement": "mutagenic call", "setting": "Test System: AMES SALMONELLA TYPHIMURIUM, Strain/Indicator: TA1538, Metabolic Activation: RAT, LIVER, S-9, AROCLOR 1254, Method: STANDARD PLATE", "value": "inactive; negative"}, {"measurement": "mutagenic call", "setting": "Test System: AMES SALMONELLA TYPHIMURIUM, Strain/Indicator: TA1538, Metabolic Activation: RAT, LIVER, S-9, Method: STANDARD PLATE", "value": "inactive; negative; toxicity at 1000 ug/plate"}]}, {"smiles": "CC(=O)OCCCCCCCCONC(=O)c1ccccc1", "values": [{"measurement": "mutagenic call", "setting": "[1]", "value": "active; positive"}, {"measurement": "mutagenic call", "setting": "[8]", "value": "active; positive"}, {"measurement": "mutagenic call", "setting": "Test System: AMES SALMONELLA TYPHIMURIUM, Strain/Indicator: TA100, Metabolic Activation: RAT, S-9, AROCLOR, Method: STANDARD PLATE", "value": "inactive; negative"}]}, {"smiles": "O=c1[nH]c2ccccc2n1C1CCN(CCCC(c2ccc(F)cc2)c2ccc(F)cc2)CC1", "values": [{"measurement": "mutagenic call", "setting": "[1]", "value": "inactive; negative"}, {"measurement": "mutagenic call", "setting": "[2]", "value": "inactive; negative"}, {"measurement": "mutagenic call", "setting": "[8]", "value": "inactive; negative"}, {"measurement": "mutagenic call", "setting": "[3]", "value": "inactive; negative"}, {"measurement": "mutagenic call", "setting": "[4]", "value": "inactive; negative"}, {"measurement": "mutagenic call", "setting": "[5]", "value": "inactive; negative"}, {"measurement": "mutagenic call", "setting": "[6]", "value": "inactive; negative"}, {"measurement": "mutagenic call", "setting": "[7]", "value": "inactive; negative"}]}, {"smiles": "C=CC(Cl)CCl", "note": "(centres undefined)", "values": [{"measurement": "mutagenic call", "setting": "Test System: AMES SALMONELLA TYPHIMURIUM, Strain/Indicator: TA102, Metabolic Activation: RAT LIVER S-9, PHENOBARBITAL AND 5,6-BENZOFLAVONE, Method: STANDARD PLATE", "value": "inactive; negative"}, {"measurement": "mutagenic call", "setting": "Test System: AMES SALMONELLA TYPHIMURIUM, Strain/Indicator: TA2638, Metabolic Activation: RAT LIVER S-9, PHENOBARBITAL AND 5,6-BENZOFLAVONE, Method: STANDARD PLATE", "value": "inactive; negative"}, {"measurement": "mutagenic call", "setting": "Test System: E. COLI, Strain/Indicator: WP2 (PKM101), Metabolic Activation: RAT LIVER S-9, PHENOBARBITAL AND 5,6-BENZOFLAVONE, Method: STANDARD PLATE", "value": "inactive; negative"}, {"measurement": "mutagenic call", "setting": "Test System: E. COLI, Strain/Indicator: WP2 UVRA (PKM101), Metabolic Activation: RAT LIVER S-9, PHENOBARBITAL AND 5,6-BENZOFLAVONE, Method: STANDARD PLATE", "value": "inactive; negative"}]}, {"smiles": "CC(=O)O[C@H]1CC[C@@]2(C)C(=CC[C@H]3[C@@H]4CC[C@H]([C@H](C)CCCC(C)C)[C@@]4(C)CC[C@@H]32)C1", "values": [{"measurement": "mutagenic call", "setting": "Test System: AMES SALMONELLA TYPHIMURIUM, Strain/Indicator: TA97A, Metabolic Activation: NONE, Method: STANDARD PLATE", "value": "inactive; negative"}, {"measurement": "mutagenic call", "setting": "Test System: AMES SALMONELLA TYPHIMURIUM, Strain/Indicator: TA97A, Metabolic Activation: RAT, LIVER, S-9, AROCLOR 1254, Method: STANDARD PLATE", "value": "inactive; negative"}, {"measurement": "mutagenic call", "setting": "[8]", "value": "inactive; negative"}, {"measurement": "mutagenic call", "setting": "[3]", "value": "inactive; negative"}, {"measurement": "mutagenic call", "setting": "Test System: AMES SALMONELLA TYPHIMURIUM, Strain/Indicator: TA102, Metabolic Activation: NONE, Method: STANDARD PLATE", "value": "inactive; negative"}, {"measurement": "mutagenic call", "setting": "Test System: AMES SALMONELLA TYPHIMURIUM, Strain/Indicator: TA102, Metabolic Activation: RAT, LIVER, S-9, AROCLOR 1254, Method: STANDARD PLATE", "value": "inactive; negative"}, {"measurement": "mutagenic call", "setting": "Test System: AMES SALMONELLA TYPHIMURIUM, Strain/Indicator: TA104, Metabolic Activation: NONE, Method: STANDARD PLATE", "value": "inactive; negative"}, {"measurement": "mutagenic call", "setting": "Test System: AMES SALMONELLA TYPHIMURIUM, Strain/Indicator: TA104, Metabolic Activation: RAT, LIVER, S-9, AROCLOR 1254, Method: STANDARD PLATE", "value": "inactive; negative"}]}]}
